PMC10146491, “Meroterpenoids from Gongolaria abies-marina against Kinetoplastids: In Vitro Activity and Programmed Cell Death Study” (Pharmaceuticals, 2023)

Key:
[1] = tested on: intracellular form of L. infantum; design: method as in PMID 28126391; settings: read-out: IC50 against the intracellular form of L. infantum; cited from earlier work
[2] = tested on: promastigotes of Leishmania infantum; design: method as in PMID 28126391; settings: read-out: IC50 against promastigotes of Leishmania infantum; cited from earlier work
[3] = tested on: promastigotes of L. amazonensis; assay: Leishmanicidal activity assay (Alamar Blue), promastigotes; assay type: cell-based, Leishmania amazonensis
Description: (§1) To carry out the experiments, promastigotes of Leishmania amazonensis (MHOM/BR/77/LTB0016) and L. donovani (MHOM/IN/90/GE1F8R) and epimastigotes of Trypanosoma cruzi (Y strain) were employed. Leishmania species were cultured in Schneider’s medium (Sigma-Aldrich, Madrid, Spain), supplemented with 10% fetal bovine serum (VWR, Biowest, Nuaillé, France) and incubated at 26 °C. RPMI 1640 medium (Gibco, Thermo Fisher, Madrid, Spain) with or without phenol red was also used to culture the parasites at the same temperature. Epimastigotes of T. cruzi were cultured in liver infusion tryptose (LIT) medium supplemented with 10% fetal bovine serum at 26 °C. A cytotoxicity assay was performed using a murine macrophage cell line J774A.1 (ATCC TIB-67), which was maintained in Dulbecco’s modified Eagle’s medium (Gibco, Thermo Fisher, Madrid, Spain) supplemented with 10% of fetal bovine serum at 37 °C in a 5% CO2 atmosphere.
(§2) With the objective of determining the antiparasitic activity of the compounds isolated from G. abies-marina, leishmanicidal activity assays were performed against promastigote stages of L. amazonensis and L. donovani, as well as a trypanocidal activity assay performed against epimastigote stages of T. cruzi. In both parasites, a colorimetric assay was used based on the Alamar Blue reagent (Life Technologies, Madrid, Spain) as previously described by Bethencourt-Estrella et al. (2021).
(§3) In a sterile 96 well-plate, serial dilutions of the extracts, fractions or compounds isolated from G. abies-marina were performed in RPMI 1640 medium without phenol red (in the case of Leishmania spp.) or in LIT (in the case of T. cruzi) with a final volume of 100 µL. Parasites were added to wells to reach a concentration of 5 × 10^5 (Leishmania spp.) or 2.5 × 10^5 (T. cruzi) until a final volume of 200 µL/well. Next, 10% of Alamar Blue® was placed into each well and the plate was incubated for 72 h at 26 °C. Finally, the fluorescence of each well was measured using an EnSpire® Multimode Plate Reader (Perkin Elmer, Madrid, Spain) (544 nm excitation, 590 nm emission) and the concentration that inhibits 50% of the parasite population (IC50) was calculated using a non-linear regression analysis with 95% confidence limits. Miltefosine and benznidazol were used as reference drugs. To analyze the data and calculate the IC50, SigmaPlot 12.0 statistical analysis software (Systat Software Inc, Palo Alto, CA, USA) was used.
(§4) The 50% inhibitory concentration (IC50) and 50% cytotoxic concentration (CC50) values were obtained using Sigma Plot 12.0 statistical analysis software (Systat Software) and calculated using a non-linear regression analysis with 95% confidence limits. Leishmanicidal and trypanocidal activity assays, as well as cytotoxicity assays, were performed three times on different days, and the results were expressed as means ± standard deviations. The analysis of variance was determined using a one-way ANOVA using the GraphPad.PRISM® 9.0 software program (GraphPad Software, San Diego, CA, USA). Differences at p < 0.05 were considered statistically significant.

[4] = Cytotoxicity assay (Alamar Blue); assay type: cell-based; settings: mouse, J774A.1 murine macrophage cell line, J774A.1, 24 h, read-out: Cytotoxicity CC50, murine macrophages
Description: as §1
In a sterile 96-well plate, murine macrophages of the cell line J774A.1 were placed to reach an amount of 10^5 cells per well using RPMI 1640 medium without phenol red. After murine macrophage attachment, 50 µL serial dilutions of the isolated compounds were added in each well until reaching a final volume of 100 µL. Next, 10% of Alamar Blue® was placed into each well and the plate was incubated for 24 h at 37 °C with a 5% CO2 atmosphere. Finally, the plates were analyzed using an EnSpire® Multimode Plate Reader (PerkinElmer, Madrid, Spain), as described in the previous section, and the 50% cytotoxic concentration (CC50) values were calculated.
as §4

[5] = tested on: intracellular amastigotes of L. amazonensis; assay: In vitro effect against amastigote stage in infected macrophages; assay type: cell-based, Leishmania amazonensis
Description: To determine the in vitro effect against the amastigote stage of L. amazonensis, murine macrophages were infected. In a sterile 96 well-plate, macrophages of the J774A.1 cell line were placed in RPMI 1640 to reach 10^5 macrophages per well. This plate was incubated at 37 °C in a 5% CO2 atmosphere. After one hour of incubation, 100 µL of stationary-phase promastigotes of 7-day-old culture was added in a 10:1 ratio (10^6 parasites per well) and the plates were re-incubated at 37 °C for 24 h to achieve maximum infection. Then, the wells were washed with fresh medium to remove non-phagocytosed promastigotes. The infected macrophages were treated with the compounds isolated for 24 h. Then, the medium was removed carefully to be replaced by 30 μL of 0.05% SDS and the plate was shaken for 30 s. After broke macrophages, 170 μL of Schneider’s medium was added to each well to give a final volume of 200 μL and 20 μL of Alamar Blue® was added to the plate being incubated at 26 °C for 72 h, as described by López-Arencibia et al. (2017). After 72 h of incubation, the plates were analyzed using the same protocol for the promastigote test.

[6] = tested on: L. donovani promastigotes; assay: ATP level analysis (Cell Titer-Glo); assay type: cell-based, Leishmania donovani; settings: IC90 of compound, 24 h
Description: (§5) To study the mechanism of cell death induced in parasites by compounds isolated from Gongolaria abies-marina, a common step was carried out to perform the following five experiments. The promastigotes of Leishmania spp. and epimastigotes of T. cruzi were incubated at the IC90 levels of the compounds (previously calculated) for 24 h at 26 °C. After incubation, the parasites were centrifuged at 3000 rpm for 10 min at 4 °C. The pellets were resuspended following the manufacturer’s instructions for each kit. After the incubation of promastigotes and epimastigotes of the parasites with the IC90 of the compounds, the changes in ATP levels were measured using a Cell Titer-Glo® Luminescent Cell Viability Assay (Promega, WI, USA). The assay was carried out in a white 96-well plate following the manufacturer’s instructions, as previously described by Cartuche et al. (2020). The luminescence was measured using an EnSpire® Multimode Plate Reader (PerkinElmer, Madrid, Spain).

[7] = tested on: epimastigotes of Trypanosoma cruzi; assay: Trypanocidal activity assay (Alamar Blue), epimastigotes; assay type: cell-based
Description: as §1, §2, §3, §4

T. cruzi epimastigotes [8] = assay: ATP level analysis (Cell Titer-Glo); assay type: cell-based, Trypanosoma cruzi; settings: IC90 of compound, 24 h
Description: as §5

[9] = tested on: L. amazonensis promastigotes; assay: ATP level analysis (Cell Titer-Glo); assay type: cell-based, Leishmania amazonensis; settings: IC90 of compound, 24 h
Description: as §5

[10] = tested on: promastigotes of L. donovani; assay: Leishmanicidal activity assay (Alamar Blue), promastigotes; assay type: cell-based, Leishmania donovani
Description: as §1, §2, §3, §4

[11] = tested on: L. donovani promastigotes; assay: Mitochondrial membrane potential (JC-1 assay); assay type: cell-based, Leishmania donovani; settings: IC90, 24 h
Description: (§6) To study the mechanism of cell death induced in parasites by compounds isolated from Gongolaria abies-marina, a common step was carried out to perform the following five experiments. The promastigotes of Leishmania spp. and epimastigotes of T. cruzi were incubated at the IC90 levels of the compounds (previously calculated) for 24 h at 26 °C. After incubation, the parasites were centrifuged at 3000 rpm for 10 min at 4 °C. The pellets were resuspended following the manufacturer’s instructions for each kit. A JC-1 Mitochondrial Membrane Potential Assay Kit® (Cayman Chemical, Ann Arbor, MI, USA) was used to analyze variations in the mitochondrial membrane potential of the parasites after incubation at the IC90 levels of the compounds. After centrifugation, the parasites were resuspended in the same buffer and transferred to a black 96-well plate. JC-1 was added following the manufacturer’s instructions as also described by López-Arencibia et al. (2020). Green and red fluorescence was measured using an EnSpire® Multimode Plate Reader (PerkinElmer, Madrid, Spain).

T. cruzi epimastigotes [12] = assay: Mitochondrial membrane potential (JC-1 assay); assay type: cell-based, Trypanosoma cruzi; settings: IC90, 24 h
Description: as §6

[13] = tested on: L. amazonensis promastigotes; assay: Mitochondrial membrane potential (JC-1 assay); assay type: cell-based, Leishmania amazonensis; settings: IC90, 24 h
Description: as §6

| Compound | IC50 [1] | IC50 [2] | Selectivity index (CC50/IC50), L. amazonensis ([3]; CC50 in murine macrophages) | IC50 ([3]; Leishmania amazonensis, 72 h, Alamar Blue, read-out: Antikinetoplastid activity IC50, L. amazonensis) | CC50 at 24 h [4] | Selectivity index (CC50/IC50), amastigotes of L. amazonensis ([5]; CC50 in murine macrophages) | IC50 ([5]; Leishmania amazonensis, J774.A1, intracellular amastigotes in J774A.1 macrophages, 24 h treatment) | ATP levels relative to negative control [6] | Selectivity index (CC50/IC50), T. cruzi ([7]; CC50 in murine macrophages) | IC50 ([7]; Trypanosoma cruzi, 72 h, Alamar Blue, read-out: Antikinetoplastid activity IC50, T. cruzi) | ATP levels relative to negative control (T. cruzi epimastigotes [8]) | ATP levels relative to negative control (T. cruzi epimastigotes [8]; listed as cystomexicone B (1)) | ATP levels relative to negative control [9] | Selectivity index (CC50/IC50), L. donovani ([10]; CC50 in murine macrophages) | IC50 ([10]; Leishmania donovani, 72 h, Alamar Blue, read-out: Antikinetoplastid activity IC50, L. donovani) | Mitochondrial membrane potential changes (JC-1) [11] | Mitochondrial membrane potential changes (JC-1) (T. cruzi epimastigotes [12]) | Mitochondrial membrane potential changes (JC-1) [13] |
| --- | --- | --- | --- | --- | --- | --- | --- | --- | --- | --- | --- | --- | --- | --- | --- | --- | --- | --- |
| 3R-tetraprenyltoluquinone | 25 µM | 44.9 µM | – | – | – | – | – | – | – | – | – | – | – | – | – | – | – | – |
| COc1c(C)cc(O)cc1C/C=C(\C)CC(=O)/C=C(\C)CCCC(C)=O [Cystomexicone B (1), cystomexicone B] | – | – | > 7.61 | 36.6 ± 4.24 µM | > 279 µM | >11.36 | 24.6 ± 0.83 µM | significantly decreased | > 14.53 | 19.2 ± 2.62 µM | significantly decreased | most affected | significantly decreased | > 1.12 | 248.3 ± 0.94 µM | does not produce significant changes | does not produce significant changes | does not produce significant changes |
| 3S-tetraprenyltoluquinone | 88 µM | 94.4 µM | – | – | – | – | – | – | – | – | – | – | – | – | – | – | – | – |
